{"source": "patent US7553837B2", "about": "“Phenylazole compounds production process and antioxidants” (Nippon Soda Co., Ltd., priority 2003, dated 2009)", "key": {"[1]": {"tested_on": "lipid peroxidation activity in a rat brain homogenate", "assay": "In vitro lipid peroxidation inhibition (rat brain homogenate, thiobarbituric acid process)", "assay_type": "biochemical", "settings": "read-out: In vitro lipid peroxidation inhibition 50% inhibitory concentration (IC50 μM), 500 μM cysteine, 5 μM sulfuric acid monobasic iron, 100 mM KCl, 37° C. for 30 minutes", "protocol": "(§1) An in vitro lipid peroxidation inhibition of the compounds of the present invention was evaluated by measuring a lipid peroxidation activity in a rat brain homogenate according to a process of Malvy, c., et al., Biochemical and Biophysical Research Communications, 1980, Vol. 95, p. 734-737. That is, a rat brain was extracted and a 5-fold amount of an aqueous phosphoric acid buffered saline solution (pH 7.4) (hereinafter abbreviated to PBS) was added to the brain under ice cooling, followed by homogenization using a Teflon homogenizer and further centrifugation at 10,000 g for 20 minutes to prepare a brain homogenate as a supernatant. To the brain homogenate thus prepared, 500 μM cysteine, 5 μM sulfuric acid monobasic iron and 100 mM KCl were added, followed by incubation at 37° C. for 30 minutes. Malondialdehyde produced by the […] of lipid peroxidation was measured by a thiobarbituric acid process."}, "[2]": {"assay": "Acute oral toxicity, single oral dose, mortality rate after 7 days", "settings": "mouse, in vivo, male mice, observed for 7 days", "protocol": "A single dose of each of the compounds of the present invention was orally administered to male mice. After observing for 7 days, a mortality rate was determined."}, "[3]": {"tested_on": "lipid peroxidation activity of each tissue homogenate (brain, heart and kidney)", "assay": "Tissue migration properties: ex vivo lipid peroxidation inhibition in brain, heart and kidney homogenates", "settings": "SD male rats, 100 mg/kg intraperitoneally, 30 minutes after administration", "protocol": "as §1\nTissue migration properties of the compounds of the present invention were evaluated by measuring an ex vivo lipid peroxidation inhibition. A solution or suspension prepared by dissolving or suspending each of test compounds in an aqueous physiological saline solution or a 1% poly oxy ethylene hydrogenated castor oil (NIKKOL HCO-60, manufactured by Nikko Chemicals Co., Ltd.) physiological saline solution was intraperitoneally administered to SD male rats (one group: 3 rats, 6 weeks old) (available from Nippon SLC Co., Ltd.) at a dose of 100 mg/kg. 30 Minutes after administration, rats were bled to death by cutting the carotid artery and then the brain, heart and kidney were extracted. A lipid peroxidation activity of each tissue homogenate was measured by the process described in Example 18. An inhibition ratio in each tissue of the compounds of the present invention was determined from the amount of lipid peroxidation produced of a control group (physiological saline administration group) and a test compound administration group."}, "[4]": {"tested_on": "lipid peroxidation in retina homogenate", "assay": "Retina migration properties: ex vivo retinal lipid peroxidation production inhibition", "assay_type": "in vivo", "settings": "SD male rats, retina taken after 30 minutes", "protocol": "Retina migration properties of the compounds of the present invention were evaluated. To SD male rats (one group: 3 rats, 6 weeks old), a solution or suspension prepared by dissolving or suspending each of the test compounds in a 0.1N hydrochloric acid solution or a 1% poly oxy ethylene hydrogenated castor oil (NIKKOL HCO-60) solution was orally administered. After 30 minutes, both eyes were extracted and the retina was separated under ice cooling. A 5% homogenate solution of the retina was prepared in a 0.1M tris-hydrochloric acid buffer (pH 7.4) under ice cooling using a polytron homogenizer for a trace amount (NS-310E: manufactured by Nichion Irika Kiki Co., Ltd.) and, after autoxidation at 37° C. for one hour, the amount of lipid peroxidation produced was determined by a thiobarbituric acid process (MASUGI et al., vitamin 51, 21-29, 1977). A 30% inhibitory dose (ID30) was determined from the inhibition ratio at each dose. As is apparent from the results, the compounds of the present invention have an ex vivo retinal lipid peroxidation production inhibitory action and is also excellent in retina migration properties."}, "[5]": {"tested_on": "abnormal behavior and fatality due to ferrous chloride", "assay": "In vivo antioxidative activity: ferrous chloride administration into spinal subarachnoid cavity of mice", "set-up": "species or system Slc:ICR male mice", "settings": "score after 60 minutes", "protocol": "An in vivo antioxidative activity of the compounds of the present invention was evaluated from an abnormal behavior due to administration of ferrous chloride into spinal subarachnoid cavity of mice as well as an inhibitory effect of a fatality rate according to the process described in J. Med. Chem., 1997, Vol. 40, p. 559-573. Using Slc:ICR male mice (one group: 3 to 7 mice, 5 weeks old) (available from Nippon SLC Co., Ltd.), 5 μl of a 50 mM ferrous chloride physiological saline solution was administered to the spinal canal through the space between the fifth lumbar vertebrae and the sixth lumbar vertebrae. 20 to 60 minutes after administration of ferrous chloride, symptoms were observed and a score after 60 minutes was determined from symptoms shown in Table 32. […] As is apparent from the results, the compounds of the present invention have an in vivo antioxidation action."}}, "data": [{"smiles": "Cc1c(C)c2c(c(C)c1N)CC(C)(CN1CCN(c3cccc(-n4ccnc4)c3)CC1)O2", "note": "(centres unmarked) [Compound B-1-18]", "values": [{"measurement": "IC50", "setting": "[1]", "result": 0.25, "unit": "µM"}, {"measurement": "LD50 at 7 days", "setting": "[2]", "result": "> 1000", "unit": "mg/kg"}, {"measurement": "Ex vivo lipid peroxidation inhibition inhibition ratio (%) Brain", "setting": "[3]; brain homogenate", "result": 77, "unit": "%"}, {"measurement": "Ex vivo lipid peroxidation inhibition inhibition ratio (%) Heart", "setting": "[3]; heart homogenate", "result": 88, "unit": "%"}, {"measurement": "Ex vivo lipid peroxidation inhibition inhibition ratio (%) Kidney", "setting": "[3]; kidney homogenate", "result": 89, "unit": "%"}, {"measurement": "Lipid peroxidation inhibition 30% inhibitory concentration (ID30, oral administration) in ex vivo retina", "setting": "[4]", "result": 12, "unit": "mg/kg"}, {"measurement": "In vivo antioxidation action 50% inhibitory concentration (ID50), Intraperitoneal administration", "setting": "[5]; intraperitoneal administration 30 minutes before ferrous chloride into spinal canal", "result": 4.7, "unit": "mg/kg"}, {"measurement": "In vivo antioxidation action 50% inhibitory concentration (ID50), Oral administration", "setting": "[5]; oral administration 30 minutes before ferrous chloride into spinal canal", "result": 7.4, "unit": "mg/kg"}]}]}
